Key:
[1] = system: ENR+CD organoids (ISC to Paneth cell differentiation); experiment: Primary screen: basal (non-stimulated) lysozyme secretion LYZ.NS, 2.5-D 384-well ENR+CD organoid differentiation; format: cell-based, mouse
Text: (§1) High-throughput screening.

[2] = system: ENR+CD organoids (ISC to Paneth cell differentiation); experiment: Primary screen: CCh-stimulated lysozyme secretion LYZ.S, 2.5-D 384-well ENR+CD organoid differentiation; format: cell-based, mouse; details: primary screen
Text: as §1

ENR+CD organoids = experiment: Primary screen: ATP (CellTiter-Glo 3D, CTG) cell number/viability, 2.5-D 384-well ENR+CD organoids;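 further: compounds given at plating and again on day 3 over a 6-day differentiation from ENR+CV stem-cell-enriched precursors, ATP measured on day 6, plate median as control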
[3] = primary screen, dose 0.08 uM, standard z score
[4] = primary screen, dose 0.40 uM, standard z score
[5] = primary screen, dose 2.00 uM, standard z score
[6] = primary screen, dose 10.00 uM, standard z score
[7] = primary screen; dose 0.08 uM; FC vs plate median
[8] = primary screen; dose 0.40 uM; FC vs plate median
[9] = primary screen; dose 2.00 uM; FC vs plate median
[10] = primary screen; dose 10.00 uM; FC vs plate median
[11] = primary screen, standard z score, dose 0.08 uM
[12] = primary screen, standard z score, dose 0.40 uM
[13] = primary screen, standard z score, dose 2.00 uM
[14] = primary screen, standard z score, dose 10.00 uM

Compound: CC[C@H](C)C(=O)O[C@H]1C[C@@H](C)C=C2C=C[C@H](C)[C@H](CC[C@@H]3C[C@@H](O)CC(=O)O3)[C@H]21 [Lovastatin]
- Dose.FC.LYZ.NS (log2 fold change) ([1]; primary screen, dose 0.08 uM): 0.002
- Z.LYZ.NS (standard z score) ([1]; primary screen, dose 0.08 uM): 0.017
- Dose.FC.LYZ.NS (log2 fold change) ([1]; primary screen, dose 0.40 uM): −0.057
- Z.LYZ.NS (standard z score) ([1]; primary screen, dose 0.40 uM): −0.492
- Dose.FC.LYZ.NS (log2 fold change) ([1]; primary screen, dose 2.00 uM): −0.279
- Z.LYZ.NS (standard z score) ([1]; primary screen, dose 2.00 uM): −2.430
- Dose.FC.LYZ.NS (log2 fold change) ([1]; primary screen, dose 10.00 uM): −0.271
- Z.LYZ.NS (standard z score) ([1]; primary screen, dose 10.00 uM): −2.362
- Dose.FC.LYZ.S (log2 fold change) ([2]; dose 0.08 uM): −0.023
- Dose.FC.LYZ.S (log2 fold change) ([2]; dose 0.40 uM): −0.049
- Dose.FC.LYZ.S (log2 fold change) ([2]; dose 2.00 uM): −0.398
- Dose.FC.LYZ.S (log2 fold change) ([2]; dose 10.00 uM): −0.409
- Dose.FC.CTG (log2 fold change) (ENR+CD organoids; primary screen, dose 0.08 uM): −0.322
- Dose.FC.CTG (log2 fold change) (ENR+CD organoids; primary screen, dose 0.40 uM): −0.492
- Dose.FC.CTG (log2 fold change) (ENR+CD organoids; primary screen, dose 2.00 uM): −1.174
- Dose.FC.CTG (log2 fold change) (ENR+CD organoids; primary screen, dose 10.00 uM): −1.391

Compound: Cc1c(C(=O)Nc2ccc(N3C[C@@H](C)O[C@@H](C)C3)nc2)cccc1-c1ccc(OC(F)(F)F)cc1 [LDE225 (NVP-LDE225, Erismodegib)]
- Dose.FC.LYZ.NS (log2 fold change) ([1]; primary screen, dose 0.08 uM): 0.085
- Z.LYZ.NS (standard z score) ([1]; primary screen, dose 0.08 uM): 0.739
- Dose.FC.LYZ.NS (log2 fold change) ([1]; primary screen, dose 0.40 uM): 0.101
- Z.LYZ.NS (standard z score) ([1]; primary screen, dose 0.40 uM): 0.881
- Dose.FC.LYZ.NS (log2 fold change) ([1]; primary screen, dose 2.00 uM): 0.011
- Z.LYZ.NS (standard z score) ([1]; primary screen, dose 2.00 uM): 0.094
- Dose.FC.LYZ.NS (log2 fold change) ([1]; primary screen, dose 10.00 uM): 0.049
- Z.LYZ.NS (standard z score) ([1]; primary screen, dose 10.00 uM): 0.426
- Dose.FC.LYZ.S (log2 fold change) ([2]; dose 0.08 uM): 0.095
- Dose.FC.LYZ.S (log2 fold change) ([2]; dose 0.40 uM): 0.074
- Dose.FC.LYZ.S (log2 fold change) ([2]; dose 2.00 uM): 0.002
- Dose.FC.LYZ.S (log2 fold change) ([2]; dose 10.00 uM): 0.006
- Dose.FC.CTG (log2 fold change) (ENR+CD organoids; primary screen, dose 0.08 uM): 0.107
- Z.CTG (standard z score) (ENR+CD organoids; primary screen, dose 0.08 uM): 0.255
- Dose.FC.CTG (log2 fold change) (ENR+CD organoids; primary screen, dose 0.40 uM): 0.067
- Z.CTG (standard z score) (ENR+CD organoids; primary screen, dose 0.40 uM): 0.159
- Dose.FC.CTG (log2 fold change) (ENR+CD organoids; primary screen, dose 2.00 uM): 0.229
- Z.CTG (standard z score) (ENR+CD organoids; primary screen, dose 2.00 uM): 0.546
- Dose.FC.CTG (log2 fold change) (ENR+CD organoids; primary screen, dose 10.00 uM): −0.001
- Z.CTG (standard z score) (ENR+CD organoids; primary screen, dose 10.00 uM): −0.002

Compound: COC1CCN(C(=O)c2cc(Cc3n[nH]c(=O)c4ccccc34)ccc2F)CC1 [AZD2461]
- Dose.FC.LYZ.NS ([1]; primary screen, dose 0.08 uM): 0.038 log2 fold change
- Z.LYZ.NS (standard z score) ([1]; primary screen, dose 0.08 uM): 0.334
- Dose.FC.LYZ.NS ([1]; primary screen, dose 0.40 uM): −0.038 log2 fold change
- Z.LYZ.NS (standard z score) ([1]; primary screen, dose 0.40 uM): −0.327
- Dose.FC.LYZ.NS ([1]; primary screen, dose 2.00 uM): −0.074 log2 fold change
- Z.LYZ.NS (standard z score) ([1]; primary screen, dose 2.00 uM): −0.641
- Dose.FC.LYZ.NS ([1]; primary screen, dose 10.00 uM): −0.172 log2 fold change
- Z.LYZ.NS (standard z score) ([1]; primary screen, dose 10.00 uM): −1.497
- Dose.FC.LYZ.S ([2]; dose 0.08 uM): 0.097 log2 fold change
- Dose.FC.LYZ.S ([2]; dose 0.40 uM): 0.015 log2 fold change
- Dose.FC.LYZ.S ([2]; dose 2.00 uM): −0.100 log2 fold change
- Dose.FC.LYZ.S ([2]; dose 10.00 uM): −0.224 log2 fold change
- Dose.FC.CTG (ENR+CD organoids; primary screen, dose 0.08 uM): 0.073 log2 fold change
- Z.CTG (standard z score) (ENR+CD organoids; primary screen, dose 0.08 uM): 0.174
- Dose.FC.CTG (ENR+CD organoids; primary screen, dose 0.40 uM): −0.040 log2 fold change
- Z.CTG (standard z score) (ENR+CD organoids; primary screen, dose 0.40 uM): −0.095
- Dose.FC.CTG (ENR+CD organoids; primary screen, dose 2.00 uM): −0.232 log2 fold change
- Z.CTG (standard z score) (ENR+CD organoids; primary screen, dose 2.00 uM): −0.555
- Dose.FC.CTG (ENR+CD organoids; primary screen, dose 10.00 uM): −0.336 log2 fold change
- Z.CTG (standard z score) (ENR+CD organoids; primary screen, dose 10.00 uM): −0.803

Compound: O=C(NNc1ccccc1)c1ccncc1 [PluriSIn #1 (NSC 14613)]
- Z.LYZ.NS [1, 3]: 0.720
- Z.LYZ.NS [1, 4]: 0.039
- Z.LYZ.NS [1, 5]: −0.929
- Z.LYZ.NS [1, 6]: −2.475
- Dose.FC.LYZ.NS [1, 7]: 0.083 log2 fold change
- Dose.FC.LYZ.NS [1, 8]: 0.004 log2 fold change
- Dose.FC.LYZ.NS [1, 9]: −0.107 log2 fold change
- Dose.FC.LYZ.NS [1, 10]: −0.284 log2 fold change
- Dose.FC.LYZ.S ([2]; dose 0.08 uM, FC vs plate median): 0.057 log2 fold change
- Dose.FC.LYZ.S ([2]; dose 0.40 uM, FC vs plate median): −0.007 log2 fold change
- Dose.FC.LYZ.S ([2]; dose 2.00 uM, FC vs plate median): −0.133 log2 fold change
- Dose.FC.LYZ.S ([2]; dose 10.00 uM, FC vs plate median): −0.372 log2 fold change
- Z.CTG (ENR+CD organoids; [3]): −0.349
- Z.CTG (ENR+CD organoids; [4]): −0.226
- Z.CTG (ENR+CD organoids; [5]): −1.035
- Z.CTG (ENR+CD organoids; [6]): −2.038
- Dose.FC.CTG (ENR+CD organoids; [7]): −0.146 log2 fold change
- Dose.FC.CTG (ENR+CD organoids; [8]): −0.095 log2 fold change
- Dose.FC.CTG (ENR+CD organoids; [9]): −0.433 log2 fold change
- Dose.FC.CTG (ENR+CD organoids; [10]): −0.853 log2 fold change

Compound: CC1C(=O)OC2C(O)C34C5CC(C(C)(C)C)C36C(OC(=O)C6O)OC4(C(=O)O5)C12O (stereo not drawn) [Ginkgolide B]
- Dose.FC.LYZ.NS ([1]; primary screen, dose 0.08 uM): 0.041 log2 fold change
- Dose.FC.LYZ.NS ([1]; primary screen, dose 0.40 uM): 0.109 log2 fold change
- Dose.FC.LYZ.NS ([1]; primary screen, dose 2.00 uM): 0.061 log2 fold change
- Dose.FC.LYZ.NS ([1]; primary screen, dose 10.00 uM): −0.037 log2 fold change
- Z.LYZ.NS [1, 11]: 0.353
- Z.LYZ.NS [1, 12]: 0.950
- Z.LYZ.NS [1, 13]: 0.528
- Z.LYZ.NS [1, 14]: −0.326
- Dose.FC.LYZ.S ([2]; dose 0.08 uM): 0.034 log2 fold change
- Dose.FC.LYZ.S ([2]; dose 0.40 uM): 0.047 log2 fold change
- Dose.FC.LYZ.S ([2]; dose 2.00 uM): 0.033 log2 fold change
- Dose.FC.LYZ.S ([2]; dose 10.00 uM): −0.035 log2 fold change
- Dose.FC.CTG (ENR+CD organoids; primary screen, dose 0.08 uM): −0.076 log2 fold change
- Dose.FC.CTG (ENR+CD organoids; primary screen, dose 0.40 uM): 0.034 log2 fold change
- Dose.FC.CTG (ENR+CD organoids; primary screen, dose 2.00 uM): −0.154 log2 fold change
- Dose.FC.CTG (ENR+CD organoids; primary screen, dose 10.00 uM): 0.177 log2 fold change
- Z.CTG (ENR+CD organoids; [11]): −0.182
- Z.CTG (ENR+CD organoids; [12]): 0.081
- Z.CTG (ENR+CD organoids; [13]): −0.369
- Z.CTG (ENR+CD organoids; [14]): 0.422

— patent publication US20220323406A1, “METHODS AND COMPOSITIONS FOR DIFFERENTIATING STEM CELLS” (Massachusetts Institute of Technology, priority 2019, published 2022)
